In patent publication US10301354B2, “Antibacterial and fungicidal peptide in which lysine and tryptophan residues are repeated, and use thereof” (priority 2011, dated 2019):
In brackets after ≈: the same amount, converted by molar mass. Where two headings read alike, the source gives them in different places. Where no end group is shown, it is not given here.

Assays:
[1] = test system: C. albicans CCARM 14001; experiment: MIC in antibiotic-tolerant fungi; type: cell-based; settings: Candida albicans, CCARM14001; RMPI 1640
Protocol: (§1) To measure the fungicidal activity of the peptide prepared in Example 1, the present inventors measured MIC, the minimal concentration that can keep the strain without being divided. For the measurement of fungicidal activity, pathogenic fungi selected from the group consisting of Candida albicans, C. catenulate, C. intermidia, C. rugosa, C. glabrata and C. melibiosica were used. After cultured in optimal media, the strains were diluted at the density of 2×10^5 cells/ml, which were then inoculated on microtitrate plates. The peptide synthesized in Example 1 and the positive control peptide (Melittin) were 2-fold diluted in solution 1 (10 mM sodium phosphate buffer, pH 7.2) and solution 2 (phosphate buffered saline) from 128 μM/well, which were added in the plate, followed by culture at 37° C. for 18˜24 hours. OD620 was measured with a microtitrate plate reader to determine MIC of each strain.
(§2) To measure the fungicidal activity of the peptide of the present invention in antibiotic-tolerant fungi, MIC of the peptide was measured by the same manner as described in Example <2-2> using RMPI 1640 and antibiotic-tolerant Candida albicans (C. albicans CCARM 14001, 14007, 14020).

[2] = test system: C. albicans CCARM 14007; experiment: MIC in antibiotic-tolerant fungi; type: cell-based; settings: Candida albicans, CCARM14007; RMPI 1640
Protocol: as §1, §2

[3] = test system: C. albicans CCARM 14020; experiment: MIC in antibiotic-tolerant fungi; type: cell-based; settings: Candida albicans, CCARM14020
Protocol: as §1, §2

[4] = test system: L. monocytogenes; type: cell-based, Listeria monocytogenes
From the text: (§3) To measure the antibacterial activity of the peptide prepared in Example 1, the present inventors measured MIC, the minimal concentration that can keep the strain without being divided. For the measurement of antibacterial activity, Gram-positive bacteria selected from the group consisting of Bacillus subtilis, Staphylococcus aureus and Listeria monocytogenes, Gram-negative bacteria selected from the group consisting of Escherichia coli, Psedomonas aeruginosa and Salmonella typhimurium, and antibiotic-tolerant strains selected from the group consisting of E. coli (E. coli CCARM 1229, 1238), Salmonella (S. typhimurium CCARM 8007, 8009, 8013) and Staphylococcus (S. aureus CCARM 3089, 3090, 3108, 3114, 3126) were used. After cultured in optimal media, the strains were diluted at the density of 2×10^5 cells/ml, which were then inoculated on microtitrate plates. The peptide synthesized in Example 1 and the positive control peptide (Melittin) were 2-fold diluted in sodium phosphate buffer and phosphate buffered saline (PBS) from 200 μM/well, which were added in the plate, followed by culture at 37° C. for 18˜24 hours. OD620 was measured with a microtitrate plate reader to determine MIC of each strain. The results are presented in Table 1 (the number in bracket indicates the one obtained from PBS).

[5] = test system: E. coli CCARM 1238; type: cell-based, Escherichia coli
From the text: as §3

[6] = test system: S. typhimurium CCARM 8007; type: cell-based, Salmonella typhimurium
From the text: as §3

[7] = test system: S. typhimurium CCARM 8009; type: cell-based, Salmonella typhimurium
From the text: as §3

[8] = test system: S. typhimurium CCARM 8013; type: cell-based, Salmonella typhimurium
From the text: as §3

[9] = test system: S. aureus CCARM 3089; type: cell-based, Staphylococcus aureus
From the text: as §3

[10] = test system: S. aureus CCARM 3090; type: cell-based, Staphylococcus aureus
From the text: as §3

[11] = test system: S. aureus CCARM 3108; type: cell-based, Staphylococcus aureus
From the text: as §3

[12] = test system: S. aureus CCARM 3114; type: cell-based, Staphylococcus aureus
From the text: as §3

[13] = test system: S. aureus CCARM 3126; experiment: MIC in antibiotic-tolerant strains; type: cell-based, Staphylococcus aureus
From the text: as §3

OC(Cn1cncn1)(Cn1cncn1)c1ccc(F)cc1F [Fluconazole]
MIC [1]: > 128 µM
MIC [2]: > 128 µM
MIC [3]: > 128 µM

CC[C@H](C)[C@H](NC(=O)CN)C(=O)NCC(=O)N[C@@H](C)C(=O)N[C@H](C(=O)N[C@@H](CC(C)C)C(=O)N[C@@H](CCCCN)C(=O)N[C@H](C(=O)N[C@@H](CC(C)C)C(=O)N[C@H](C(=O)N[C@H](C(=O)NCC(=O)N[C@@H](CC(C)C)C(=O)N1CCC[C@H]1C(=O)N[C@@H](C)C(=O)N[C@@H](CC(C)C)C(=O)N[C@H](C(=O)N[C@@H](CO)C(=O)N[C@@H](Cc1c[nH]c2ccccc12)C(=O)N[C@H](C(=O)N[C@@H](CCCCN)C(=O)N[C@@H](CCCNC(=N)N)C(=O)N[C@@H](CCCCN)C(=O)N[C@@H](CCCNC(=N)N)C(=O)N[C@@H](CCC(N)=O)C(=O)N[C@@H](CCC(N)=O)C(N)=O)[C@@H](C)CC)[C@@H](C)CC)[C@@H](C)O)[C@@H](C)O)C(C)C)C(C)C [Melittin]
MIC ([4]; PBS (number in bracket)): (1.56) μM
MIC ([4]; sodium phosphate buffer): 1.56 µM (≈ 4.44 µg/mL)
MIC ([5]; PBS (number in bracket)): (1.56) μM
MIC ([5]; sodium phosphate buffer): 1.56 µM (≈ 4.44 µg/mL)
MIC ([6]; PBS (number in bracket)): (12.5) μM
MIC ([6]; sodium phosphate buffer): 6.25 µM (≈ 17.8 µg/mL)
MIC ([7]; PBS (number in bracket)): (12.5) μM
MIC ([7]; sodium phosphate buffer): 6.25 µM (≈ 17.8 µg/mL)
MIC ([8]; PBS (number in bracket)): (6.25) μM
MIC ([8]; sodium phosphate buffer): 3.12 µM (≈ 8.88 µg/mL)
MIC ([9]; PBS (number in bracket)): (1.56) μM
MIC ([9]; sodium phosphate buffer): 1.56 µM (≈ 4.44 µg/mL)
MIC ([10]; PBS (number in bracket)): (3.12) μM
MIC ([10]; sodium phosphate buffer): 3.12 µM (≈ 8.88 µg/mL)
MIC ([11]; PBS (number in bracket)): (1.56) μM
MIC ([11]; sodium phosphate buffer): 1.56 µM (≈ 4.44 µg/mL)
MIC ([12]; PBS (number in bracket)): (3.12) μM
MIC ([12]; sodium phosphate buffer): 3.12 µM (≈ 8.88 µg/mL)
MIC ([13]; PBS (number in bracket)): (1.56) μM
MIC ([13]; sodium phosphate buffer): 1.56 µM (≈ 4.44 µg/mL)

KWKWKWKW-NH2 [SEQ. ID. NO: 3]
MIC ([13]; sodium phosphate buffer): 12.5 µM
